Data from ChEMBL document CHEMBL1201861, “Genomics of Drug Sensitity in Cancer screening data, Wellcome Trust Sanger Institute”.
“And” between values parts separate entries of the source, which are not always exact repeats. Equal entries are not always repeated.

Key:
Experiment in all cases: cells
D283 Med = format: functional, cell-based, Homo sapiens
Description: SANGER: Inhibition of human D-283MED cell growth in a cell viability assay.

D-336MG = format: functional, cell-based, Homo sapiens
Description: SANGER: Inhibition of human D-336MG cell growth in a cell viability assay.

D-542MG = format: functional, cell-based, Homo sapiens
Description: SANGER: Inhibition of human D-542MG cell growth in a cell viability assay.

DMS-79 = format: functional, cell-based; conditions: Homo sapiens
Description: SANGER: Inhibition of human DMS-79 cell growth in a cell viability assay.

Daoy = format: functional, cell-based, Homo sapiens
Description: SANGER: Inhibition of human Daoy cell growth in a cell viability assay.

EW-18 = format: functional, cell-based; conditions: Homo sapiens
Description: SANGER: Inhibition of human EW-18 cell growth in a cell viability assay.

GAK = format: functional, cell-based, Homo sapiens
Description: SANGER: Inhibition of human GAK cell growth in a cell viability assay.

HC-1 = format: functional, cell-based; conditions: Homo sapiens
Description: SANGER: Inhibition of human HC-1 cell growth in a cell viability assay.

HCC2157 = format: functional, cell-based; conditions: Homo sapiens
Description: SANGER: Inhibition of human HCC2157 cell growth in a cell viability assay.

HuP-T3 = format: functional, cell-based, Homo sapiens
Description: SANGER: Inhibition of human HuP-T3 cell growth in a cell viability assay.

JVM-2 = format: functional, cell-based; conditions: Homo sapiens
Description: SANGER: Inhibition of human JVM-2 cell growth in a cell viability assay.

KARPAS-45 = format: functional, cell-based; conditions: Homo sapiens
Description: SANGER: Inhibition of human KARPAS-45 cell growth in a cell viability assay.

KG-1 = format: functional, cell-based; conditions: Homo sapiens
Description: SANGER: Inhibition of human KG-1 cell growth in a cell viability assay.

KGN = format: functional, cell-based, Homo sapiens
Description: SANGER: Inhibition of human KGN cell growth in a cell viability assay.

MCF7 = format: functional, cell-based, Homo sapiens
Description: SANGER: Inhibition of human MCF7 cell growth in a cell viability assay.

MDA-MB-231 = format: functional, cell-based, Homo sapiens
Description: SANGER: Inhibition of human MDA-MB-231 cell growth in a cell viability assay.

MDA-MB-453 = format: functional, cell-based, Homo sapiens
Description: SANGER: Inhibition of human MDA-MB-453 cell growth in a cell viability assay.

MKN-45 = format: functional, cell-based, Homo sapiens
Description: SANGER: Inhibition of human MKN45 cell growth in a cell viability assay.

MLMA = format: functional, cell-based, Homo sapiens
Description: SANGER: Inhibition of human MLMA cell growth in a cell viability assay.

Mo = format: functional, cell-based; conditions: Homo sapiens
Description: SANGER: Inhibition of human Mo-T cell growth in a cell viability assay.

NCI-H1304 = format: functional, cell-based; conditions: Homo sapiens
Description: SANGER: Inhibition of human NCI-H1304 cell growth in a cell viability assay.

NCI-H1623 = format: functional, cell-based, Homo sapiens
Description: SANGER: Inhibition of human NCI-H1623 cell growth in a cell viability assay.

NCI-H1651 = format: functional, cell-based, Homo sapiens
Description: SANGER: Inhibition of human NCI-H1651 cell growth in a cell viability assay.

NCI-H209 = format: functional, cell-based; conditions: Homo sapiens
Description: SANGER: Inhibition of human NCI-H209 cell growth in a cell viability assay.

NCI-H292 = format: functional, cell-based, Homo sapiens
Description: SANGER: Inhibition of human NCI-H292 cell growth in a cell viability assay.

NCI-H747 = format: functional, cell-based; conditions: Homo sapiens
Description: SANGER: Inhibition of human NCI-H747 cell growth in a cell viability assay.

NCI-H82 = format: functional, cell-based; conditions: Homo sapiens
Description: SANGER: Inhibition of human NCI-H82 cell growth in a cell viability assay.

NMC-G1 = format: functional, cell-based, Homo sapiens
Description: SANGER: Inhibition of human NMC-G1 cell growth in a cell viability assay.

PFSK-1 = format: functional, cell-based, Homo sapiens
Description: SANGER: Inhibition of human PFSK-1 cell growth in a cell viability assay.

RERF-LC-MS = format: functional, cell-based, Homo sapiens
Description: SANGER: Inhibition of human RERF-LC-MS cell growth in a cell viability assay.

RH-1 = format: functional, cell-based, Homo sapiens
Description: SANGER: Inhibition of human RH-1 cell growth in a cell viability assay.

RVH-421 = format: functional, cell-based, Homo sapiens
Description: SANGER: Inhibition of human RVH-421 cell growth in a cell viability assay.

Ramos-2G6-4C10 = format: functional, cell-based; conditions: Homo sapiens
Description: SANGER: Inhibition of human Ramos-2G6-4C10 cell growth in a cell viability assay.

SF-126 = format: functional, cell-based, Homo sapiens
Description: SANGER: Inhibition of human SF126 cell growth in a cell viability assay.

SK-MES-1 = format: functional, cell-based, Homo sapiens
Description: SANGER: Inhibition of human SK-MES-1 cell growth in a cell viability assay.

SKG-IIIa = format: functional, cell-based, Homo sapiens
Description: SANGER: Inhibition of human SKG-IIIa cell growth in a cell viability assay.

SN12C = format: functional, cell-based, Homo sapiens
Description: SANGER: Inhibition of human SN12C cell growth in a cell viability assay.

SNU-C2B = format: functional, cell-based, Homo sapiens
Description: SANGER: Inhibition of human SNU-C2B cell growth in a cell viability assay.

SW626 = format: functional, cell-based, Homo sapiens
Description: SANGER: Inhibition of human SW626 cell growth in a cell viability assay.

SW756 = format: functional, cell-based, Homo sapiens
Description: SANGER: Inhibition of human SW756 cell growth in a cell viability assay.

CWR22R = format: functional, cell-based, Homo sapiens
Description: SANGER: Inhibition of human 22RV1 cell growth in a cell viability assay.

639-V = format: functional, cell-based, Homo sapiens
Description: SANGER: Inhibition of human 639-V cell growth in a cell viability assay.

8505C = format: functional, cell-based, Homo sapiens
Description: SANGER: Inhibition of human 8505C cell growth in a cell viability assay.

A2058 = format: functional, cell-based; conditions: Homo sapiens
Description: SANGER: Inhibition of human A2058 cell growth in a cell viability assay.

A673 = format: functional, cell-based, Homo sapiens
Description: SANGER: Inhibition of human A673 cell growth in a cell viability assay.

A704 = format: functional, cell-based, Homo sapiens
Description: SANGER: Inhibition of human A704 cell growth in a cell viability assay.

AM-38 = format: functional, cell-based, Homo sapiens
Description: SANGER: Inhibition of human AM-38 cell growth in a cell viability assay.

AN3-CA = format: functional, cell-based; conditions: Homo sapiens
Description: SANGER: Inhibition of human AN3-CA cell growth in a cell viability assay.

Becker = format: functional, cell-based, Homo sapiens
Description: SANGER: Inhibition of human Becker cell growth in a cell viability assay.

CAL-12T = format: functional, cell-based, Homo sapiens
Description: SANGER: Inhibition of human CAL-12T cell growth in a cell viability assay.

CAL-72 = format: functional, cell-based, Homo sapiens
Description: SANGER: Inhibition of human CAL-72 cell growth in a cell viability assay.

TE-12 = format: functional, cell-based; conditions: Homo sapiens
Description: SANGER: Inhibition of human TE-12 cell growth in a cell viability assay.

U-266 = format: functional, cell-based; conditions: Homo sapiens
Description: SANGER: Inhibition of human U-266 cell growth in a cell viability assay.

## COC(=O)CNC(=O)C(=O)OC
D283 Med; Homo sapiens, D283 Med
  IC50: 521 µM
D-336MG; Homo sapiens, D-336MG
  IC50: > 4000 µM
D-542MG; Homo sapiens, D-542MG
  IC50: 560 µM
DMS-79
  IC50: > 4000 µM
Daoy; Homo sapiens, Daoy
  IC50: 247 µM
EW-18
  IC50: 1510 µM
GAK; Homo sapiens, GAK
  IC50: 774 µM
HC-1
  IC50: 569 µM
HCC2157
  IC50: > 4000 µM
HuP-T3; Homo sapiens, HuP-T3
  IC50: 404 µM
JVM-2
  IC50: > 4000 µM
KARPAS-45
  IC50: 484 µM
KG-1
  IC50: 81.6 µM
KGN; Homo sapiens, KGN
  IC50: 62.8 µM
MCF7; Homo sapiens, MCF7
  IC50: > 4000 µM
MDA-MB-231; Homo sapiens, MDA-MB-231
  IC50: 368 µM
MDA-MB-453; Homo sapiens, MDA-MB-453
  IC50: > 4000 µM
MKN-45; Homo sapiens, MKN-45
  IC50: > 4000 µM
MLMA; Homo sapiens, MLMA
  IC50: 46.3 µM
Mo
  IC50: 1880 µM
NCI-H1304
  IC50: 533 µM
NCI-H1623; Homo sapiens, NCI-H1623
  IC50: 117 µM
NCI-H1651; Homo sapiens, NCI-H1651
  IC50: 1360 µM
NCI-H209
  IC50: 1130 µM
NCI-H292; Homo sapiens, NCI-H292
  IC50: 103 µM
NCI-H747
  IC50: > 4000 µM
NCI-H82
  IC50: > 4000 µM
NMC-G1; Homo sapiens, NMC-G1
  IC50: 466 µM
PFSK-1; Homo sapiens, PFSK-1
  IC50: 274 µM
RERF-LC-MS; Homo sapiens, RERF-LC-MS
  IC50: 1670 µM
RH-1; Homo sapiens, RH-1
  IC50: 1360 µM
RVH-421; Homo sapiens, RVH-421
  IC50: 1310 µM
Ramos-2G6-4C10
  IC50: 100 µM
SF-126; Homo sapiens, SF-126
  IC50: 220 µM
SK-MES-1; Homo sapiens, SK-MES-1
  IC50: 221 µM
SKG-IIIa; Homo sapiens, SKG-IIIa
  IC50: 308 µM
SN12C; Homo sapiens, SN12C
  IC50: 257 µM
SNU-C2B; Homo sapiens, SNU-C2B
  IC50: > 4000 µM
SW626; Homo sapiens, SW626
  IC50: 1840 µM
SW756; Homo sapiens, SW756
  IC50: 138 µM
CWR22R; Homo sapiens, 22Rv1
  IC50: 304 µM
639-V; Homo sapiens, 639-V
  IC50: 1520 µM
8505C; Homo sapiens, 8505C
  IC50: 678 µM
A2058
  IC50: 166 µM
A673; Homo sapiens, A673
  IC50: 526 µM
A704; Homo sapiens, A704
  IC50: 1140 µM
AM-38; Homo sapiens, AM-38
  IC50: 668 µM
AN3-CA
  IC50: 209 µM
Becker; Homo sapiens, Becker
  IC50: 274 µM
CAL-12T; Homo sapiens, CAL-12T
  IC50: 26.6 µM
CAL-72; Homo sapiens, CAL-72
  IC50: 488 µM
TE-12
  IC50: 182 µM
U-266
  IC50: > 4000 µM

## Cc1cc([C@@H](C)Nc2ccccc2C(=O)O)c2nc(N3CCOCC3)cc(=O)n2c1 [AZD-6482]
D283 Med; d283 med
  IC50: > 5.12 µM
D-336MG; d-336mg
  IC50: 1.67 µM and 3.43 µM
D-542MG; d-542mg
  IC50: 1.85 µM and > 5.12 µM
DMS-79
  IC50: > 5.12 µM
Daoy; Homo sapiens, Daoy
  IC50: > 5.12 µM
Daoy; daoy
  IC50: > 5.12 µM
EW-18
  IC50: > 5.12 µM
GAK; gak
  IC50: > 5.12 µM
HC-1
  IC50: > 5.12 µM
HCC2157
  IC50: 3.96 µM
HuP-T3; hup-t3
  IC50: > 5.12 µM
JVM-2
  IC50: > 5.12 µM
KARPAS-45
  IC50: 3.3 µM
KG-1
  IC50: > 5.12 µM
KGN; kgn
  IC50: 4.32 µM and > 5.12 µM
MCF7; mcf7
  IC50: > 5.12 µM and 3.35 µM
MDA-MB-231; Homo sapiens, MDA-MB-231
  IC50: > 5.12 µM
MDA-MB-231; mda-mb-231
  IC50: > 5.12 µM
MDA-MB-453; mda-mb-453
  IC50: > 5.12 µM and 2.33 µM
MKN-45; Homo sapiens, MKN-45
  IC50: > 5.12 µM
MKN-45; mkn-45
  IC50: > 5.12 µM
MLMA; Homo sapiens, MLMA
  IC50: 3.72 µM
MLMA; mlma
  IC50: 4.88 µM
Mo
  IC50: > 5.12 µM
NCI-H1304
  IC50: > 5.12 µM
NCI-H1623; nci-h1623
  IC50: > 5.12 µM and 3.13 µM
NCI-H1651; Homo sapiens, NCI-H1651
  IC50: > 5.12 µM
NCI-H1651; nci-h1651
  IC50: > 5.12 µM
NCI-H209
  IC50: > 5.12 µM
NCI-H292; nci-h292
  IC50: 3.65 µM and 1.56 µM
NCI-H747
  IC50: > 5.12 µM
NCI-H82
  IC50: > 5.12 µM
NMC-G1; Homo sapiens, NMC-G1
  IC50: > 5.12 µM
NMC-G1; nmc-g1
  IC50: > 5.12 µM
PFSK-1; pfsk-1
  IC50: > 5.12 µM
RERF-LC-MS; rerf-lc-ms
  IC50: > 5.12 µM and 4.34 µM
RH-1; rh-1
  IC50: > 5.12 µM
RVH-421; rvh-421
  IC50: > 5.12 µM
Ramos-2G6-4C10
  IC50: > 5.12 µM
SF-126; sf-126
  IC50: 4.46 µM and > 5.12 µM
SK-MES-1; sk-mes-1
  IC50: 0.79 µM and > 5.12 µM
SKG-IIIa; skg-iiia
  IC50: > 5.12 µM
SN12C; sn12c
  IC50: > 5.12 µM
SNU-C2B; Homo sapiens, SNU-C2B
  IC50: > 5.12 µM
SNU-C2B; snu-c2b
  IC50: > 5.12 µM
SW626; sw626
  IC50: > 5.12 µM
SW756; Homo sapiens, SW756
  IC50: > 5.12 µM
SW756; sw756
  IC50: > 5.12 µM
CWR22R; Homo sapiens, 22Rv1
  IC50: > 5.12 µM
CWR22R; cwr22r
  IC50: > 5.12 µM
639-V; 639-v
  IC50: 1.63 µM and 4.78 µM
8505C; 8505c
  IC50: > 5.12 µM
A2058
  IC50: > 5.12 µM
A673; Homo sapiens, A673
  IC50: > 5.12 µM
A673; a673
  IC50: > 5.12 µM
A704; a704
  IC50: > 5.12 µM and 3.31 µM
AM-38; am-38
  IC50: > 5.12 µM
AN3-CA
  IC50: 3.59 µM
Becker; becker
  IC50: 1.36 µM and 4.54 µM
CAL-12T; cal-12t
  IC50: > 5.12 µM
CAL-72; Homo sapiens, CAL-72
  IC50: > 5.12 µM
CAL-72; cal-72
  IC50: > 5.12 µM
TE-12
  IC50: > 5.12 µM
U-266
  IC50: > 5.12 µM
